The test deals with CEM cells HIV-1 protection, formazan growth assay. Briefly: NCI AIDS Antiviral Assay. The settings on record: for IC50: measured here: growth of uninfected CEM cells. Put shortly: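 Human CEM cells, uninfected and HIV-1-infected, exposed to five drug concentrations; growth measured by soluble formazan assay and scored as percent protection from infection, with protecting compounds retested.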

Values joined by “and” are separate entries in the source; they are usually repeats but may differ in a detail not shown here. Equal entries are not always repeated. Active and inactive are the calls of the source.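 How the source made its calls: active means compounds giving half or more protection of infected cells from virus-caused growth loss, again on retest; inactive means the rest.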 Where a SMILES comes first, the peptide text is derived from it.

As for `O=C(O)C[C@@H]1C(=O)OC2C(COC(=O)c3cc(O)c(O)c(O)c3)OC(OC(=O)c3cc(O)c(O)c(O)c3)C(OC(=O)c3cc(O)c(O)c4c3C1[C@H](O)C(=O)O4)C2OC(=O)c1cc(O)c(O)c(O)c1` (stereo partly specified), the half-maximal effective concentration (EC50) was 1.48 µM and the half-inhibitory concentration (IC50) came out at 12.9 µM.
For `C[N+]1(CCO)C2CCC1CC(O)C2` (stereo unspecified), the EC50 is over 200 µM and the IC50 was over 200 µM.
Consider `O=C(Nc1ccccc1)N(C1=NCC(CI)S1)c1ccc(F)cc1F` (stereo unspecified), for which the EC50 is over 200 µM and the IC50 is 25.1 µM.
The like results for `CCN(CC)CC(C)Nc1cc(C)nc2c1ccc1c2ccc2c(NC(C)CN(CC)CC)cc(C)nc21` (stereo unspecified) were, in that order, over 380 µM and 234 µM.
For the molecule `O=C1/C(=C/c2ccccc2)CN(C(=O)Oc2ccc(Cl)cc2)C/C1=C\c1ccccc1`, the outcome was inactive.
Regarding `COc1ccc(N2C(=O)C3CSCN3C2=O)cc1` (stereo unspecified), the EC50 is over 200 µM and the IC50 was over 200 µM.
As to `CCC1(CC)COP(=S)([S][Sb]([O]C(C)=O)[S]P2(=S)OCC(CC)(CC)CO2)OC1`, the EC50 was over 57.5 µM and the IC50 amounted to 9.33 µM.
On the same counts, the results for `Cc1c([C@H](C)[C@@H]2NC[C@@H](C)C[C@H]2O)ccc2c1C[C@H]1[C@H]2CC=C2C[C@@H](O)CC[C@@]21C` are over 1.82 µM and over 1.82 µM.
Regarding `Cc1n[nH]c(=O)n1/N=C\c1ccccc1`, the EC50 was over 200 µM and the IC50 is over 200 µM.
For the molecule `O=P1(c2ccccc2)C=C(c2ccccc2)NC(c2ccccc2)=C1`, the result was inactive.
Take `CCOC(=O)C(=[N+]=[N-])C(=O)Nc1nn2nnnc2c2ccccc12`: the EC50 is over 200 µM and the concentration for half-maximal inhibition (IC50) was over 200 µM.
For the molecule `COc1cccc(-c2nc(-c3cnccn3)n(C3OC(CO)C(O)C3O)n2)c1` (stereo unspecified), the EC50 is over 200 µM and the IC50 is over 200 µM.
On to `CC(C)(C)OC(=O)NC1CCCC1C(O)(C1=CCCC1)C1=CCCC1` (stereo unspecified), for which the EC50 is over 200 µM and the concentration for half-maximal inhibition (IC50) is 120 µM.
The like results for `C=C1C(=O)OC2/C=C(\C)CC/C=C(\C)CC(OC(=O)/C(=C/CO)CO)[C@@H]12` (stereo partly specified) were, in that order, over 200 µM and 0.933 µM.
On the same counts, the results for `CC(=O)c1c(-c2ccc(Cl)cc2)c(C#N)c(=S)n(C2OC(CO)C(O)C(O)C2O)c1C` (stereo unspecified) are over 200 µM and 44.7 µM.
On the same counts, the results for `O=C1NC2OC(CO)C(O)C(O)C2O1` (stereo unspecified) are over 200 µM and over 200 µM.
Take `O=C(NNC(=O)c1ccncc1)C(=O)Nc1cc(Cl)c(Cl)cc1Cl`: the EC50 was over 18.6 µM and the IC50 was over 18.6 µM.
Turning to `O=C1OC(C2Cc3ccc4c(c3C2=O)CCCC4)c2ccccc21` (stereo unspecified), the EC50 is over 200 µM and the IC50 is 33.9 µM.
On the same counts, the results for `O=C1OCc2cnccc21` are over 1860 µM and over 1860 µM.
On the same counts, the results for `COc1ccc(OC)c(-c2cn3c(n2)sc2ccccc23)c1` are over 200 µM and 50.1 µM.
The like results for `CN(C)C1C(=O)C(C(=O)NCN2CCCC2)=C(O)C2(O)C(=O)C3=C(O)c4c(O)cccc4C(C)(O)C3CC12` (stereo unspecified) were, in that order, over 63.1 µM and 53.7 µM.
On to `COc1ccc2nc3cccc([N+](=O)[O-])c3c(NCCN(C)C)c2c1`, for which the EC50 was over 2 µM and the half-inhibitory concentration (IC50) was found to be 0.0977 µM.
On the same counts, the results for `CS1(C)=Nc2c([N+](=O)[O-])cc([N+](=O)[O-])cc2S(=O)(=O)N=1` are over 112 µM and 58.9 µM.
As for `COc1ccc(/C=N/Nc2nc(C)c(C)s2)cc1`, the EC50 was over 100 µM and the concentration for half-maximal inhibition (IC50) was over 100 µM.
In the case of `CC1=C(C(=O)CC(=O)C(=O)Nc2ccccc2C(F)(F)F)Sc2ccccc2N1`, the result was inactive.
For `COc1cc2c(cc1OC)CN1CCc3cc(OC)c(OC)cc3[C@@H]1C2`, the EC50 is over 200 µM and the IC50 is 145 µM.
As for `CCOC(=O)NC(=O)c1cn(CCN2CCN(C(=O)CNC(=O)CNC(=O)Cn3cc(C(=O)NC(=O)OCC)c(=O)[nH]c3=O)CC2)c(=O)[nH]c1=O`, the outcome was inactive.
Consider `c1scc2c1COCCOCCOCCOCCOCCOCCOC2`, for which the EC50 is over 646 µM and the IC50 was over 646 µM.
Consider `c1ccc(C[P+]2(c3ccccc3)c3ccccc3-c3ccccc32)cc1`, for which the EC50 was over 200 µM and the IC50 was over 200 µM.
Take `COc1cccc(N2C(=O)[C@H]3CC(C)c4c([nH]c5ccccc45)[C@H]3C2=O)c1` (stereo partly specified): the EC50 is over 35.5 µM and the IC50 was over 35.5 µM.
Turning to `CCOC(=O)NN(C(=O)OCC)C(C(=O)C1CCCCC1)N(NC(=O)OCC)C(=O)OCC`, the outcome was inactive.
As to `CCCN(CCCCC(NC(C)=O)C(=O)NCc1ccccc1)C(=O)N(CCCl)N=O` (stereo unspecified), the EC50 is over 79.4 µM and the IC50 was over 79.4 µM.
For `CC(C)CC(NC(=O)C(Cc1ccc(O)cc1)NC(=O)C1CCCN1C(=O)C(NC(=O)C(CO)NC(=O)C(CCCCN)NC(=O)C(NC(=O)C(N)CCC(=O)O)C(C)C)C(C)O)C(=O)NC(CO)C(=O)NC(CCCCN)C(=O)O` (stereo unspecified) (H-EVKSTPYLSK-OH; configuration not given here), the outcome was inactive.
Turning to `O=C(O)c1ccccc1C(=O)c1ccccc1`, the EC50 is over 200 µM and the IC50 was over 200 µM.
Consider `COc1cc2c(cc1OCCCN1C(=O)c3cccc4cccc(c34)C1=O)N=C[C@@H]1CCCN1C2=O`, for which the concentration giving a half-maximal response (EC50) was 5.13 µM and the concentration for half-maximal inhibition (IC50) came to 13.2 µM.
For the molecule `COC[C@@]12CCC(OC)C34[C@@H]5C[C@@]6(O)C(OC(=O)c7ccccc7)[C@@H]5[C@](OC(C)=O)(C[C@@H]6OC)[C@@H](C(OC)[C@@H]31)[C@@H]4N(C=O)C2` (stereo partly specified), the result was inactive.
As to `O=C1C=C2C=CC3CC2(O1)C1CCCCN31` (stereo unspecified), the EC50 is over 1150 µM; the IC50 is 8.91 µM and 5.37 µM.
On to `N#Cc1c(N)nc(N)nc1Nc1ccc(I)cc1`, for which the EC50 was over 200 µM and the IC50 is 23.4 µM.
On the same counts, the results for `CCOc1c(Cc2ccccc2)c(=O)nc2c(-c3ccccc3)cncn12` are over 200 µM and 42.7 µM.
The like results for `C=CCOc1cc2c(ccc1=O)-c1c(cc(OC)c(OC)c1OC)CCC2NC(C)=O` (stereo unspecified) were, in that order, over 200 µM and 3.63 µM.
The like results for `CCOP(=S)(NN=C1CCC(C(C)(C)C)CC1)OCC` (stereo unspecified) were, in that order, over 200 µM and 89.1 µM.
Turning to `CCc1ccc(N=Cc2cc(OC)c(OC)c(OC)c2)cc1`, the EC50 was over 33.1 µM and the IC50 is over 33.1 µM.
Take `N=C(N)/N=C(/C=C/c1ccccc1)CC1OC(=O)c2ccccc21` (stereo unspecified): the EC50 was over 42.7 µM and the IC50 was over 42.7 µM.
Consider `O=C1NC2(CCN(CCCC3(c4ccc(F)cc4)OCCO3)CC2)Oc2ccccc21`, for which the EC50 was over 100 µM and the concentration for half-maximal inhibition (IC50) is over 100 µM.
For the molecule `CC12CP(=O)(O)CC1C2(Cl)Cl` (stereo unspecified), the EC50 was over 200 µM and the half-inhibitory concentration (IC50) is over 200 µM.
Take `CC1=C(C(=O)Nc2ccccc2)C(c2ccc(C3C(C(=O)Nc4ccccc4)=C(C)NC(C)=C3C(=O)Nc3ccccc3)cc2)C(C(=O)Nc2ccccc2)=C(C)N1`: the EC50 is over 12.9 µM and the IC50 stood at 2.4 µM.
The like results for `C/C(=N\NC(=S)N1CCC(C2CCN(C(=S)N/N=C(\C)c3ccccn3)CC2)CC1)c1ccccn1` were, in that order, over 3.8 µM and 1.91 µM.
As for `CCC1=C2C(=O)c3ccccc3C2=C(C)S(=O)(=O)O1`, the concentration giving a half-maximal response (EC50) was 257 µM and the IC50 was determined as 263 µM.
On to `CC(=O)NNc1nc(C)c(C(=O)/C=C/c2ccc(/C=C/C(=O)c3sc(NNC(C)=O)nc3C)cc2)s1`, for which the EC50 is over 49 µM and the half-maximal inhibitory concentration (IC50) is over 49 µM.
As for `Cc1cc(Cl)ccc1NC(=O)/C(CC(=O)CC(c1ccccc1)c1c(O)c2ccccc2oc1=O)=N\O` (stereo unspecified), the EC50 is over 132 µM and the 50% inhibitory concentration (IC50) was 95.5 µM.
For the molecule `COc1ccc(-c2nc3c(nc2-c2ccc(OC)cc2)C(N)=NS(=O)(=O)N3)cc1`, the EC50 was over 166 µM and the IC50 was over 166 µM.
Regarding `CC(C)N=C(N)CSS(=O)(=O)O`, the EC50 is over 200 µM and the IC50 was over 200 µM.
Regarding `O=C(N/C(=C\c1ccccc1)c1nc2ccccc2c(=O)o1)c1ccccc1`, the EC50 is over 200 µM and the IC50 is over 200 µM.
In the case of `CN(C)CCCn1c2c(c3ccccc31)CCCCCC2`, the EC50 is over 200 µM and the IC50 was found to be 31.6 µM.
On the same counts, the results for `COC(=O)C1=C(C(=O)OC)C2(OC(C)=O)c3ccccc3-c3ccccc3C12` (stereo unspecified) are over 2.51 µM and 1.35 µM.
On the same counts, the results for `CCN(CC)CC(=O)Nc1cc(Cl)ccc1OC` are over 200 µM and 178 µM.
On the same counts, the results for `O=[N+]([O-])C(/C=C(\Cl)[N+](=O)[O-])=C(Nc1ccccc1)Nc1ccccc1` are over 200 µM and 6.61 µM.
`COc1cccc(-c2cc(C(=O)Nc3ccc(Cl)cc3)nc(N)n2)c1`: the EC50 is over 72.4 µM and the IC50 is 52.5 µM.
The like results for `COC(=O)C(/C(=N/NC(N)=O)C(=O)Nc1ccc(C)cc1)c1nc2ccc([N+](=O)[O-])cc2[nH]c1=O` (stereo unspecified) were, in that order, over 141 µM and over 141 µM.
On the same counts, the results for `CC(NC1=NCCO1)c1cccc([N+](=O)[O-])c1` (stereo unspecified) are over 200 µM and over 200 µM.
The like results for `CC(C)[Si](OC1=C(c2ccccc2)C(NC(=O)/C=C/c2ccc([N+](=O)[O-])cc2)CCC1)(C(C)C)C(C)C` (stereo unspecified) were, in that order, over 200 µM and over 200 µM.
Regarding `COc1ccc(/C(CCl)=C(\Nc2ccccc2)c2ccc(OC)c(OC)c2)cc1OC`, the EC50 was over 200 µM and the half-maximal inhibitory concentration (IC50) was over 200 µM.
On to `O=C(NC1C=Nc2ccccc2NC1=O)c1ccc(Cl)cc1` (stereo unspecified), for which the EC50 was over 200 µM and the IC50 was over 200 µM.
Turning to `CC1CCC(=O)C(C(=O)CC2CC(=O)N(C)C(=O)C2)C1` (stereo unspecified), the EC50 is over 126 µM and the half-maximal inhibitory concentration (IC50) was over 126 µM.
Turning to `COC(=O)N/N=C(\C)C(CN1CCOCC1)C(c1ccccc1)c1cc2ccccc2oc1=O` (stereo unspecified), the EC50 is over 83.2 µM and the IC50 stood at 61.7 µM.
On the same counts, the results for `CC1CN(Cc2ccccc2)C(=N)S1` (stereo unspecified) are over 363 µM and 288 µM.
As to `NCC1OC(OC2C(CO)OC(OC3C(O)C(N)CC(N)C3OC3OC(CO)C(O)C(O)C3N)C2O)C(N)C(O)C1O` (stereo unspecified), the result was inactive.
